Laboratory results published in ChEMBL document CHEMBL4325847, “Dihydropyrazothiazole derivatives as potential MMP-2/MMP-8 inhibitors for cancer therapy” (Bioorg Med Chem Lett, 2018).
pIC50: −log10 of the molar value.

Assays:
Neutrophil collagenase = Neutrophil collagenase (Homo sapiens, UniProt P22894); experiment: Inhibition of recombinant human MMP-8 using Mca-PLGL-Dpa-AR-NH2 as substrate preincubated for 10 mins followed by substrate addition and measured for 5 mins by fluorescence assay
HeLa = experiment: Antiproliferative activity against human HeLa cells after 48 hrs by MTT assay; format: functional, cell-based
MCF7 [1] = experiment: Induction of apoptosis in human MCF7 cells assessed as necrotic cells at 2 uM after 48 hrs by Annexin V-FITC/propidium iodide staining-based flow cytometric analysis (reference value: 0.343%); format: functional
MCF7 [2] = experiment: Induction of apoptosis in human MCF7 cells assessed as early apoptotic cells at 8 uM after 48 hrs by Annexin V-FITC/propidium iodide staining-based flow cytometric analysis (reference value: 2.54%); format: functional
MCF7 [3] = experiment: Induction of apoptosis in human MCF7 cells assessed as live cells at 2 uM after 48 hrs by Annexin V-FITC/propidium iodide staining-based flow cytometric analysis (reference value: 91.8%); format: functional
HEK-293T = experiment: Cytotoxicity against human 293T cells by MTT assay; format: cell-based
MCF7 [4] = experiment: Induction of apoptosis in human MCF7 cells assessed as late apoptotic cells at 32 uM after 48 hrs by Annexin V-FITC/propidium iodide staining-based flow cytometric analysis (reference value: 5.33%); format: functional
MCF7 [5] = experiment: Induction of apoptosis in human MCF7 cells assessed as early apoptotic cells at 32 uM after 48 hrs by Annexin V-FITC/propidium iodide staining-based flow cytometric analysis (reference value: 2.54%); format: functional
MCF7 [6] = experiment: Induction of apoptosis in human MCF7 cells assessed as necrotic cells at 32 uM after 48 hrs by Annexin V-FITC/propidium iodide staining-based flow cytometric analysis (reference value: 0.343%); format: functional
MCF7 [7] = experiment: Induction of apoptosis in human MCF7 cells assessed as early apoptotic cells at 2 uM after 48 hrs by Annexin V-FITC/propidium iodide staining-based flow cytometric analysis (reference value: 2.54%); format: functional
HepG2 = experiment: Antiproliferative activity against human HepG2 cells after 48 hrs by MTT assay; format: functional, cell-based; conditions: HepG2, 48 h
L02 = experiment: Cytotoxicity against human LO2 cells by MTT assay; format: cell-based
[8] = target: 72 kDa type IV collagenase (Homo sapiens, UniProt P08253); experiment: Inhibition of recombinant human MMP-2 preincubated for 10 mins followed by Mca-PLGL-Dpa-AR-NH2 substrate addition and measured for 5 mins by fluorescence assay; conditions: for pIC50: read-out: IC50; for IC50: read-out: pIC50 (converted)
MCF7 [9] = experiment: Induction of apoptosis in human MCF7 cells assessed as necrotic cells at 8 uM after 48 hrs by Annexin V-FITC/propidium iodide staining-based flow cytometric analysis (reference value: 0.343%); format: functional
MCF7 [10] = experiment: Induction of apoptosis in human MCF7 cells assessed as late apoptotic cells at 8 uM after 48 hrs by Annexin V-FITC/propidium iodide staining-based flow cytometric analysis (reference value: 5.33%); format: functional
MCF7 [11] = experiment: Induction of apoptosis in human MCF7 cells after 48 hrs by Annexin V-FITC/propidium iodide staining-based flow cytometric analysis; format: functional, cell-based
MCF7 [12] = experiment: Antiproliferative activity against human MCF7 cells after 48 hrs by MTT assay; format: functional, cell-based; conditions: MCF7, 48 h
MCF7 [13] = experiment: Induction of apoptosis in human MCF7 cells assessed as live cells at 32 uM after 48 hrs by Annexin V-FITC/propidium iodide staining-based flow cytometric analysis (reference value: 91.8%); format: functional
MCF7 [14] = experiment: Induction of apoptosis in human MCF7 cells assessed as late apoptotic cells at 2 uM after 48 hrs by Annexin V-FITC/propidium iodide staining-based flow cytometric analysis (reference value: 5.33%); format: functional
MCF7 [15] = experiment: Induction of apoptosis in human MCF7 cells assessed as live cells at 8 uM after 48 hrs by Annexin V-FITC/propidium iodide staining-based flow cytometric analysis (reference value: 91.8%); format: functional

Chain of Neutrophil collagenase (P22894 whole entry): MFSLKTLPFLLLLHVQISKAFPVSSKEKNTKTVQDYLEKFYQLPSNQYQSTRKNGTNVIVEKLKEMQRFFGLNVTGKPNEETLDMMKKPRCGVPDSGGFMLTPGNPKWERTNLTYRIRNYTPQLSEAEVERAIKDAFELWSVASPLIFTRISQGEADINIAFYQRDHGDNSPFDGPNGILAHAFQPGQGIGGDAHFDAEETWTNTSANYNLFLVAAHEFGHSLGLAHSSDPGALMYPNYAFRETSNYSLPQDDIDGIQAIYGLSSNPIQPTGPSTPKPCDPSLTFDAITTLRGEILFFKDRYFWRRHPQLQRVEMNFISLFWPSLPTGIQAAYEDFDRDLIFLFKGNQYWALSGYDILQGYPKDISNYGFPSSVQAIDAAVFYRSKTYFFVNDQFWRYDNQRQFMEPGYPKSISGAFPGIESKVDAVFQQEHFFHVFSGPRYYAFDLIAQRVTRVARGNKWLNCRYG
Chain of 72 kDa type IV collagenase (P08253 whole entry): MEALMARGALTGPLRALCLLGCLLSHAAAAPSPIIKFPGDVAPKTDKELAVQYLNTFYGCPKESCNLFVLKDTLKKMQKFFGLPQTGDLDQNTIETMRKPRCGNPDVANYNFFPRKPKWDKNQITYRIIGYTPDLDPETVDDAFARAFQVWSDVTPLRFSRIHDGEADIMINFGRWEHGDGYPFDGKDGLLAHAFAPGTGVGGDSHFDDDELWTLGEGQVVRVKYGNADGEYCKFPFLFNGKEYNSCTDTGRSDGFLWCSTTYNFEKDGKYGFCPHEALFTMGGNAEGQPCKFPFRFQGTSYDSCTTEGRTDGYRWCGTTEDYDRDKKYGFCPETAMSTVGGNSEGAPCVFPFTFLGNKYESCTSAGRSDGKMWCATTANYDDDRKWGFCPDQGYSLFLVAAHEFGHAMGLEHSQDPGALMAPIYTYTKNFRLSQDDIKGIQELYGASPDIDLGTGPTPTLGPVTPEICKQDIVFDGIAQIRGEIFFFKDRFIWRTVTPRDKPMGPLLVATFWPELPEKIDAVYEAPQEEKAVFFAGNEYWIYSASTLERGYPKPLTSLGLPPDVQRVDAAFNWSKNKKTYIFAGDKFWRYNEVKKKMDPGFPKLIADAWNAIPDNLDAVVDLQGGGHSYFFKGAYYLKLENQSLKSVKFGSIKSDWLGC

Structure (SMILES)	pIC50 (Neutrophil collagenase)	pIC50 (HeLa)	pIC50 (HepG2)	pIC50 [8]	pIC50 (MCF7 [12])	CC50 (HEK-293T) [µM]	CC50 (L02) [µM]	other results
C[C@@]1(O)c2cccc(O)c2C(=O)C2=C(O)[C@]3(O)C(=O)C(C(N)=O)=C(O)C[C@@H]3C[C@@H]21	4.66			5.89				
Oc1ccccc1C1CC(c2ccc(F)cc2)=NN1c1nc(-c2ccc(Br)cc2)cs1 (configuration not stated)	4.31	5.57	4.82	4.91	5.83	52	48.2	
Cc1ccc(-c2cc(C(F)(F)F)nn2-c2ccc(S(N)(=O)=O)cc2)cc1 [CELECOXIB]			6.11		5.16	55.8	78.2	
Oc1ccccc1C1CC(c2ccccc2)=NN1c1nc(-c2ccccc2)cs1 (configuration not stated)	4.20	5.30	5.00	4.66	5.68	55.1	88.3	IC50 [8]: 21.4 µM
Oc1ccccc1C1CC(c2ccc(F)cc2)=NN1c1nc(-c2ccccc2)cs1 (configuration not stated)	4.40	4.88	4.60	5.02	5.49	50.7	85.6	
Oc1ccccc1C1CC(c2ccccc2)=NN1c1nc(-c2ccc(C(F)(F)F)cc2)cs1 (configuration not stated)	< 4.00	5.65	5.05	4.32	5.46	25.4	42.8	
Oc1ccccc1C1CC(c2ccc(F)cc2)=NN1c1nc(-c2ccc(C(F)(F)F)cc2)cs1 (configuration not stated)	4.00	4.93	4.98	4.23	5.54	34.8	66.1	
COc1ccc(C2=NN(c3nc(-c4ccc(C(F)(F)F)cc4)cs3)C(c3ccccc3O)C2)cc1 (configuration not stated)	< 4.00	4.53	4.92	4.23	4.95	45.4	45.6	IC50 [8]: 57.5 µM
Oc1ccccc1C1CC(c2ccccc2)=NN1c1nc(-c2ccc(Br)cc2)cs1 (configuration not stated)	4.12	5.31	4.75	4.46	5.67	52.8	65.2	

Second part, led by results:

pIC50 (Neutrophil collagenase)	pIC50 (HeLa)	pIC50 (HepG2)	pIC50 [8]	pIC50 (MCF7 [12])	Structure (SMILES)	CC50 (HEK-293T) [µM]	CC50 (L02) [µM]	other results
4.31	5.06	4.92	4.95	5.99	COc1ccc(-c2csc(N3N=C(c4ccccc4)CC3c3ccccc3O)n2)cc1 (configuration not stated)	57.1	72.4	Activity (MCF7 [1]): 0.216%; Activity (MCF7 [2]): 2.57%; Activity (MCF7 [3]): 73%; Activity (MCF7 [4]): 60.9%; Activity (MCF7 [5]): 2.29%; Activity (MCF7 [6]): 0.198%; Activity (MCF7 [7]): 4.44%; Activity (MCF7 [9]): 0.207%; Activity (MCF7 [10]): 43.6%; Activity (MCF7 [11]): Dose-dependent effect; Activity (MCF7 [13]): 36.6%; Activity (MCF7 [14]): 22.4%; Activity (MCF7 [15]): 53.7%
4.59	4.86	4.90	5.55	5.43	COc1ccc(C2=NN(c3nc(-c4cccc(OC)c4)cs3)C(c3ccccc3O)C2)cc1 (configuration not stated)	35.2	56.2	
4.06	5.26	4.66	4.55	5.97	Oc1ccccc1C1CC(c2ccccc2)=NN1c1nc(-c2cccc(Br)c2)cs1 (configuration not stated)	41.8	42.3	
4.19	4.79	4.82	4.93	5.50	COc1ccc(C2=NN(c3nc(-c4ccc(OC)cc4)cs3)C(c3ccccc3O)C2)cc1 (configuration not stated)	63	49.7	
4.43	4.55	5.02	4.77	4.70	COc1ccc(C2=NN(c3nc(-c4ccc(Br)cc4)cs3)C(c3ccccc3O)C2)cc1 (configuration not stated)	71.9	> 100	
4.44	5.01	4.75	5.17	5.40	COc1cccc(-c2csc(N3N=C(c4ccc(F)cc4)CC3c3ccccc3O)n2)c1 (configuration not stated)	39.1	43.8	
4.45	5.56	4.96	5.08	5.28	COc1cccc(-c2csc(N3N=C(c4ccccc4)CC3c3ccccc3O)n2)c1 (configuration not stated)	46.6	57.9	
4.55	4.77	4.74	4.97	5.34	COc1ccc(-c2csc(N3N=C(c4ccc(F)cc4)CC3c3ccccc3O)n2)cc1 (configuration not stated)	59.4	85.6	
4.52	4.74	4.63	4.89	5.62	COc1ccc(C2=NN(c3nc(-c4ccccc4)cs3)C(c3ccccc3O)C2)cc1 (configuration not stated)	64.1	75.2	
4.32	4.89	5.12	4.86	5.35	COc1ccc(C2=NN(c3nc(-c4cccc(Br)c4)cs3)C(c3ccccc3O)C2)cc1 (configuration not stated)	24.5	68.7	
4.22	4.96	4.73	4.79	5.10	Oc1ccccc1C1CC(c2ccc(F)cc2)=NN1c1nc(-c2cccc(Br)c2)cs1 (configuration not stated)	70.1	59.4	
